According to US20220008397A1, “PHARMACEUTICAL COMPOSITION FOR THE TREATMENT OF OCULAR NEOVASCULARISATION” (NOVALIQ GMBH, priority 2019, published 2022):

Experiments:
choroidal angiogenesis = experiment: In vitro model of choroidal angiogenesis; assay type: cell-based; conditions: 20 ng/mL and 4 ng/mL
Procedure: The antiangiogenic effect of Tacrolimus was also tested in an in vitro model of choroidal angiogenesis and compared with dexamethasone.

[1] = test system: BMDMs (bone marrow derived macrophages); experiment: In vitro study using BMDMs (culture of bone marrow derived macrophages), expression of angiogenic growth factors; assay type: cell-based
[2] = Tamura et al., 2002; cited from earlier work

**Q.** Which results are given for `C=CC[C@@H]1/C=C(\C)C[C@H](C)C[C@H](OC)[C@H]2O[C@@](O)(C(=O)C(=O)N3CCCC[C@H]3C(=O)O[C@H](/C(C)=C/[C@@H]3CC[C@@H](O)[C@H](OC)C3)[C@H](C)[C@@H](O)CC1=O)[C@H](C)C[C@@H]2OC` [Tacrolimus]?
**A.** Dose dependence of the suppression of choroidal angiogenesis in vitro (choroidal angiogenesis; 100 ng/mL): not dose-dependent; Effect on choroidal angiogenesis in vitro (choroidal angiogenesis; tacrolimus at 100 ng/mL): suppressed choroidal angiogenesis; Expression of pro-angiogenic growth factors [1]: can reduce the expression of pro-angiogenic growth factors; Ability to penetrate tissue barrier upon topical administration [2]: poor ability to penetrate tissue barrier
